Measurements taken from patent US8748456B2, “Pyrazolo piperidine derivatives as NADPH oxidase inhibitors” (Genkyotex SA, priority 2010, dated 2014).

Assays:
Type in all cases: cell-based, human
NOX [1] = test: Nitroblue tetrazolium (NBT) test of intracellular and extracellular superoxide in cells; conditions: DPI 10 μM, NOX activity as % of the activity in control cells, 'usually'
Method: Intracellular and extracellular superoxide was measured by a colorimetric technique using a quantitative nitroblue tetrazolium (NBT) test. SOD-inhibitable conversion of NBT to formazan, a fine blue precipitate, in the presence of superoxide anion was measured using Fluostar Optima spectrometer (BMG labtech). Following incubation with appropriate stimuli, cells were trypsinized (1× Trypsin-EDTA), collected by centrifugation, and washed with PBS to remove medium. 5×10^5 cells were plated on 48-well plates and incubated in Hank's balanced salt solution containing 0.5 mg/mL NBT with or without 800 U/mL SOD in the presence or absence of compounds according to the invention. As a control, DPI was included at a final concentration of 10 μM. After 2.5 h, cells were fixed and washed with methanol to remove non reduced NBT. The reduced formazan was then dissolved in 230 μl of 2M potassium hydroxide and in 280 μl of dimethylsulfoxide. The absorption was measured at 630 nm. For calculation, the absorbance at 630 nm was normalized for each individual well. The mean of the four blank values was subtracted from each corrected value for each time point. NOX activities were expressed as % of the activity in control cells. Residual activity of DPI-treated cells was usually <10%.

NOX [2] = tested on: T1, NOX; test: H2DCF-DA (DCF fluorescence) in HUVEC stimulated with TGF-β; conditions: NOX activity as % of the activity in control cells, 'usually'
T1 construct: rows headed: Residual activity of DPI-treated cells; other: H2DCF-DA, HUVEC + TGF-β; NOX activity as % of the activity in control ce
Method: HUVEC are cultured in endothelial basal medium supplemented with hydrocortisone (1 μg/mL, CalbioChem), bovine brain extract (12 μg/mL), gentamicin (50 μg/mL, CalbioChem), amphotericin B (50 ng/mL, CalBioChem EGF (10 ng/mL, and 10% FCS until the fourth passage. When the fifth passage was started, cells were cultured with a lower concentration of FCS (2%) in the absence of EGF, if not indicated otherwise. All experiments were done with cells of the fifth passage. The cells were incubated with OxLDL (oxidized low-density lipoprotein) or its buffer as control for 24 h, before detection of O2^− formation.
HUVEC were plated on coverslips and made quiescent overnight in 0.5% BSA before stimulation with TGF-β. Cells were loaded for 10 minutes with 5 μM CM-H2DCFDA in phenol-red-free medium in the dark and then treated with TGF-β (R&D Systems) in the presence or absence of compounds according to the invention. Cells were then visualized by immunofluorescence microscopy after fixation and staining of the nuclei with DAPI or examined live using confocal microscopy. DCF fluorescence was visualized at an excitation wavelength of 488 nm and emission at 515 to 540 nm. […] For calculation, the absorbance at […] was normalized to absorbance at […] for each individual well. […] NOX activities were expressed as % of the activity in control cells. […]

NOX [3] = tested on: T2, NOX; test: Amplex Red measurement of NOX activity (extracellular hydrogen peroxide) in DMSO-differentiated HL60 cells; conditions: DPI 10 μM, NOX activity as % of the activity in control cells, 'usually'
T2 construct: rows headed: Residual activity of DPI-treated cells; other: Amplex Red; DPI 10 μM; NOX activity as % of the activity in control cell
Method: Human acute myeloid leukemia cell line HL-60 was cultured in RPMI 1640 (Invitrogen) supplemented with 10% heat-inactivated calf serum, 2 mM glutamine, 100 U/mL penicillin (Sigma), and 100 μg streptomycin (Sigma) at 37° C. under a humidified atmosphere of 5% CO2. HL60 differentiation to the neutrophil phenotype was triggered by adding Me2SO (final concentration 1.25% v/v for 6 days) to the culture medium.
Extracellular hydrogen peroxide was measured using Amplex UltraRed (Molecular Probes). Cells were trypsinized (1× Trypsin-EDTA), collected by centrifugation, and resuspended in HBSS supplemented with 1% glucose. Cells were seeded into black 96-well plates at a density of 50′000 cells in 200 μl testing buffer (HBSS 1% glucose containing 0.005 U/mL horseradish peroxidase (Roche) and 50 μM Amplex Red in the presence or absence of compounds according to the invention. As a control, DPI was included at a final concentration of 10 μM The plates were placed in the fluorescent Optima Fluorescent plate reader and kept at 37° C. during 20 min. Fluorescence was measured for […] with excitation and emission wavelengths of 544 nm and 590 nm respectively. NOX activities were expressed as % of the activity in control cells. […]
The Table 2 below summarizes the percentage of inhibition of NOX activity as measured by Amplex Red using DMSO-differentiated HL60 cells as described above: […]

NOX [4] = test: Chemiluminescence (luminol) measurement of ROS in cells; conditions: NOX activity as % of the activity in control cells, 'usually'
Method: ROS was measured using the chemiluminescent probe luminol. Cells were cultured and plated as for Amplex Red except that the Amplex Red agent was replaced by 10 μg/mL luminol (Sigma 09235). Light emission was recorded continuously at 37° C. for 60 minutes using the luminescence function of the FluoStar Optima fluorescent plate reader. The mean of the four blank values was subtracted from each corrected value for each time point. NOX activities were expressed as % of the activity in control cells. Residual activity of DPI-treated cells was usually <10%.

Measured: Residual activity of DPI-treated cells

c1ccc([I+]c2ccccc2)cc1 [DPI, Diphenyl-iodonium]
< 10%: all assays above
